The results in this text go back to US11656224B2, “Multivalent glycan microarray platform” (Z Biotech, LLC, priority 2016, dated 2023).

For test [1], the target named is T1, peanut agglutinin (PNA) lectin (Arachis hypogaea, UniProt P02872).
T1 sequence (P02872 24-273): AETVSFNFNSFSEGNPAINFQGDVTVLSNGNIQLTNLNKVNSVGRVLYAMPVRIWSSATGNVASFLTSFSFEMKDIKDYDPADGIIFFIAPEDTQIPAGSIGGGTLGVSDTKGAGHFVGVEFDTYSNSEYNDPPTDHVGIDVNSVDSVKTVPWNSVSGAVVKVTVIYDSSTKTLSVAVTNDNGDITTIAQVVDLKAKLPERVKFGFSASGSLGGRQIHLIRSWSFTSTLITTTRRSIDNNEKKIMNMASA
Kind of test: PNA lectin binding to glycan array on polystyrene polymer slides. The conditions noted are these: PNA 10 μg/ml, PAMAM G3 NHS, Cy5 labeled streptavidin. The source says: (§1) (PAMAM) dendrimer generation 3 functionalized with N-hydroxysuccinimide (NHS) groups (Example 5). The glycan array was fabricated same as described in Example 7. Biotinylated lectins (e.g., SBA, FIG. 7; PNA, FIG. 8; and ConA, FIG. 9) were used for examine the binding on the glycan array by detection with a Cy5 labeled streptavidin.

Test [2] deals with T2, Soybean agglutinins (SBA) lectin (Glycine max, UniProt P05046). Briefly: SBA lectin binding to O-mucin glycan microarray (NHS PAMAM G2 glass slide). The settings on record: SBA 1 μg/ml; O-mucin glycan microarray on glass; Cy3 labeled streptavidin. As to the method: For this purpose, a library containing 12 glycan probes representing 0-GalNAc glycan structures in mucin (Table 2) was immobilized onto a glass slide coated with PAMAM dendrimer (generation 2) terminated with NHS functional groups (Example 1). Each glycan was dissolved in a Print Buffer containing 150 mM sodium phosphate, (pH 8.5) with 100 μM concentration and printed onto the slides using ˜1 nL probe. The printing process was performed in 60% relative humidity. After printing the glycan immobilization can be enhanced by incubation at room temperature for 12 hours in 60% relative humidity.
The carbohydrate-protein interaction can be investigated by interrogating the microarray with lectins or glycan-binding proteins. In detail, first the arrayed slides were briefly rinsed in MilliQ water and then affixed into an assay chamber. The arrays were treated with a blocking buffer, such as 25 mM ethanolamine in 100 mM boric acid, 0.01% Tween 20 (pH 8.5). A biotinylated lectin (e.g., Helix pomatia Agglutinin (HPA)) or a glycan-binding protein dissolved in an Assay Buffer was subjected to the array for incubation. The Assay Buffer could be 20 mM Tris-HCl, 150 mM NaCl, 0.05% Tween 20, 1 mM CaCl2), 1 mM MgCl2, 1% BSA (pH 7.6). The protein-carbohydrate binding was detected by applying a Cy3 labeled streptavidin. The binding intensities—relative fluorescence units (RFU)—were quantified by using a fluorescence-based microarray scanner (FIG. 6).

The target in test [3] is T2, Soybean agglutinins (SBA) lectin. Briefly: SBA lectin binding to glycan array on polystyrene polymer slides. The conditions noted are these: SBA 10 μg/ml, PAMAM G3 NHS, Cy5 labeled streptavidin.
Description: as §1

Test [4] has as its system HIV broadly neutralizing antibody 2G12. Briefly: 2G12 antibody binding to high-mannose N-glycans on hydrazide substrate with or without aniline. The conditions noted are these: aniline-coated substrate. The source says:
2G12 is pre-complexed with Cy3 labeled anti-Human IgG (1:4 ratio). […] 2G12 is pre-complexed with Cy3 labeled anti-Human IgG (1:4 ratio). […] CD15 antibody is detected with Alexa Fluor 555-labeled anti-mouse IgM secondary antibody. […] The aniline can serve as a catalyst to increase aldehyde-hydrazide coupling efficiency, thus enhance the immobilization capability for glycans containing free reducing-end. The use of aniline as a nucleophilic catalyst accelerates bond formation through a Schiff base intermediate (mechanism in FIG. 4D).

T2 sequence (P05046 33-285): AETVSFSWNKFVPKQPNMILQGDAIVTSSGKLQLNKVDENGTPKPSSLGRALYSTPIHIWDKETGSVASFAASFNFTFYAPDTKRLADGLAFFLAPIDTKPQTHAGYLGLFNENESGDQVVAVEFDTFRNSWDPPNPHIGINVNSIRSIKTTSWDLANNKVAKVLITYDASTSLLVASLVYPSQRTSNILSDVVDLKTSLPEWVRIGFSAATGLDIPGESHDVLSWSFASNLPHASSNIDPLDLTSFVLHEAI

On to `CC(=O)NC1C(OC(C)C(N)C(=O)O)OC(CO)C(O)C1OC1OC(CO)C(O)C(O)C1O` (stereo not drawn) [T-Thr, Galβ1-3GalNAcα1-Thr], for which the “binding to PNA lectin” value in test [1] is listed as “specific binding”. `CC(=O)N[C@H]1[C@@H](OC[C@H](N)C(=O)O)O[C@H](CO)[C@H](O)[C@@H]1O` [Tn-Ser, α-GalNAc-Ser]: in test [2], the “binding to SBA lectin” value is reported as “specific binding”. On the same count and under the same terms, under H2N-TSAPDT*RPAP-NH2 (*α-GalNAc) stands “specific binding”. With `CC(=O)N[C@H]1[C@@H](O[C@H](C)[C@H](N)C(=O)O)O[C@H](CO)[C@H](O)[C@@H]1O` [Tn-Thr, α-GalNAc-Thr], the “binding to SBA lectin” value in test [3] and in test [2] was “specific binding” in each case.

Consider `CC(=O)NC1C(OCC(N)C(=O)O)OC(CO)C(O)C1OC1OC(CO)C(O)C(O)C1O` (stereo not drawn) [T-Ser, Galβ1-3GalNAcα1-Ser], for which the “binding to PNA lectin” value in test [1] is recorded as “specific binding”. “[Manα1-2] [Manα1-2] Manα1-6(Manα1-3)Manα1-6(Manα1-2Manα1-3)Manβ1-4GlcNAcβ1-4GlcNAc-(3 isomers) [Glycan 90]”: the “binding to 2G12 antibody” value in test [4] is reported as “specific binding”.

Regarding H2N-APGST*APP-NH2 (*α-GalNAc), the “binding to SBA lectin” value in test [3] and in test [2] was “specific binding” in each case.
